In the NIST ThermoML archive (doi:10.1016/j.jct.2014.03.014):
“And” between values parts separate entries of the source, which are not always exact repeats. Equal entries are not always repeated.

Details: Liquid, Closed cell (Static) method

FC(F)CC(F)(F)F [1,1,1,3,3-pentafluoropropane]
Details | vapor or sublimation pressure
293.15 K | 122.7 kPa
295.08 K | 132.2 kPa
295.57 K | 134.7 kPa
296.57 K | 139.9 kPa
297.57 K | 145.2 kPa
298.57 K | 150.6 kPa and 150.7 kPa
298.58 K | 150.7 kPa
299.61 K | 156.5 kPa
300.61 K | 162.4 kPa
301.62 K | 168.4 kPa
302.63 K | 174.6 kPa
303.15 K | 177.9 kPa
303.64 K | 181 kPa
304.64 K | 187.6 kPa
305.65 K | 194.3 kPa
306.66 K | 201.2 kPa
307.67 K | 208.3 kPa
308.68 K | 215.7 kPa
309.7 K | 223.3 kPa
310.72 K | 231.1 kPa
311.74 K | 239.1 kPa
313.15 K | 250.3 kPa
313.71 K | 255.2 kPa
315.74 K | 272.6 kPa
317.76 K | 290.8 kPa
318.78 K | 300.3 kPa
319.77 K | 309.9 kPa
321.71 K | 329.1 kPa
323.15 K | 344 kPa
323.73 K | 349.9 kPa
325.71 K | 371.6 kPa
327.68 K | 394 kPa
329.67 K | 417.9 kPa
330.68 K | 430.4 kPa
331.7 K | 443.4 kPa
333.71 K | 469.6 kPa
335.73 K | 497.1 kPa
337.74 K | 525.9 kPa
338.75 K | 540.8 kPa
339.77 K | 556.1 kPa
341.82 K | 587.9 kPa
343.82 K | 620.4 kPa
343.88 K | 621 kPa
345.87 K | 654.6 kPa
347.86 K | 689.5 kPa
348.87 K | 707.6 kPa and 707.7 kPa
349.86 K | 725.9 kPa
350.86 K | 744.6 kPa
351.87 K | 763.8 kPa
352.87 K | 783.3 kPa

CC(C)C [2-methylpropane]
Details | vapor or sublimation pressure [kPa]
293.15 K | 302.2
293.58 K | 306.7
295.58 K | 325.6
297.58 K | 345.2
299.59 K | 365.9
301.61 K | 387.6
303.15 K | 404.7
303.62 K | 410.2
305.63 K | 433.9
307.64 K | 458.6
309.65 K | 484.2
311.66 K | 510.9
313.15 K | 531.6
313.69 K | 538.7
315.7 K | 567.9
317.73 K | 598.1
319.72 K | 629
321.75 K | 661.7
323.15 K | 685.6
323.82 K | 696.1
325.77 K | 730.9
327.73 K | 765.3
329.74 K | 802.7
331.72 K | 840.8
333.71 K | 880.5
335.74 K | 922.5
337.79 K | 966.2
339.85 K | 1011.5
341.75 K | 1054.5
343.78 K | 1102.5
343.88 K | 1105.1
345.86 K | 1153.1
347.86 K | 1204.4
349.9 K | 1256.3
351.91 K | 1309.8
353.91 K | 1365.1
